Our source for the melting point and IC50 values is patent US8293768B2, “Organic compounds” (Novartis AG, priority 2006, dated 2012).

Series [1] has as its target T1, stearoyl-CoA desaturase (SCD1) (Mus musculus, UniProt P13516).
T1 construct: Reactions are started by adding 50 μL of microsomes (1.25 mg/mL); from tissue; host or cells: liver microsomes of male ICR outbred mice on a high-carbohydrate, low fat diet
T1 sequence (P13516 1-355): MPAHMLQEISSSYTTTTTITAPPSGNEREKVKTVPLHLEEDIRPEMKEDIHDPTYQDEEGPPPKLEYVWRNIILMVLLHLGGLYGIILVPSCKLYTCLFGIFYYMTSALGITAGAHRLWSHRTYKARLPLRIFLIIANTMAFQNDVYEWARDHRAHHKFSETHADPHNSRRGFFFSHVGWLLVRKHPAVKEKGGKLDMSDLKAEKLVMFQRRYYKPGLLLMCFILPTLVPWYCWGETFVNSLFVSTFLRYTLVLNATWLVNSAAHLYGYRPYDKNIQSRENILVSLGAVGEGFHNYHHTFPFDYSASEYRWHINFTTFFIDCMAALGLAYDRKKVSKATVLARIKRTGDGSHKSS
Description: SCD microsomal assay: release of 3H2O from [9,10-3H]stearoyl-CoA in mouse liver microsomes. In kind it is biochemical. The conditions noted are these: 15 min incubation at 25° C. The source says:
The identification of compounds of the invention as SCD inhibitors was readily accomplished using the SCD enzyme and microsomal assay procedure described in Shanklin J. and Summerville C., Proc. Natl. Acad. Sci. USA (1991), Vol. 88, pp. 2510-2514.
Measuring Stearoyl-CoA Desaturase Inhibition Activity of a Test Compound Using Mouse Liver Microsomes
The identification of compounds of the invention as SCD inhibitors was readily accomplished using the SCD microsomal assay procedure described in Shanklin J. and Summerville C., Proc. Natl. Acad. Sci. USA (1991), Vol. 88, pp. 2510-2514.
Male ICR outbread mice, on a high-carbohydrate, low fat diet, under light halothane (15% in mineral oil) anesthesia are sacrificed by exsanguination during periods of high enzyme activity. Livers are immediately rinsed with cold 0.9% NaCl solution, weighed and minced with scissors. All procedures are performed at 4° C. unless specified otherwise. Livers are homogenized in a solution (1/3 w/v) containing 0.25 M sucrose, 62 mM potassium phosphate buffer (pH 7.0), 0.15 M KCl, 15 mM N-acetyleysteine, 5 mM MgCl2, and 0.1 mM EDTA using 4 strokes of a Potter-Elvehjem tissue homogenizer. The homogenate is centrifuged at 10,400×g for 20 min to eliminate mitochondria and cellular debris. The supernatant is filtered through a 3-layer cheesecloth and centrifuged at 105,000×g for 60 min. The microsomal pellet is gently resuspended in the same homogenization solution with a small glass/teflon homogenizer and stored at −70° C. The absence of mitochondrial contamination is enzymatically assessed. The protein concentration is measured using bovine serum albumin as the standard.
Desaturase activity is measured as the release of ^3H2O from [9,10-^3H]stearoyl-CoA. Reactions per assay point conditions are as follows: 2 μL 1.5 mM stearoyl-CoA, 0.25 μL 1 mCi/mL ^3H stearoyl CoA, 10 μL 20 mM NADH, 36.75 μL 0.1 M PK buffer (K2HPO4/NaH2PO4, pH 7.2). The test compound or control solution is added in a 1 μL volume. Reactions are started by adding 50 μL of microsomes (1.25 mg/mL). The plates are mixed and after 15 min incubation on a heating block (25° C.), the reactions are stopped by the addition of 10 μL 60% PCA. An aliquot of 100 μL is then transferred to a filter plate pretreated with charcoal and the plate centrifuged at 4000 rpm for 1 minute. The flow through containing the ^3H2O released by the SCD1 desaturation reaction is added to scintillation fluid and the radioactivity measured in a Packard TopCount. The data is analysed to identify the IC50 for test compounds and reference compounds. […] The activity was defined in terms of % SCD enzyme activity remaining at the desired concentration of the test compound or as the IC50 concentration. The IC50 (affinity) of the example compounds toward the stearoyl-CoA desaturase is comprised between around […] and 0.0001 μM or between around 5 μM and 0.0001 μM or between around 1 μM and 0.0001 μM.

On to `O=C(NCc1cccnc1)c1sc(N2CCN(Cc3ccc(F)cc3)C2=O)nc1C(F)(F)F` [Example 26.1, 2-(3-(4-fluorobenzyl)-2-oxoimidazolidin-1-yl)-N-(pyridin-3-ylmethyl)-4-(trifluoromethyl)thiazole-5-carboxamide], for which the melting point fell in the range of 161 to 162 °C. In series [1], half-maximal inhibition (IC50) was put at 0.039 µM.

Turning to `Cc1nc(-n2cnn(CC(=O)Nc3ccc(Cl)cc3)c2=O)sc1C(=O)NCc1cccnc1` [Example 19.10, 2-(1-(2-(4-chlorophenylamino)-2-oxoethyl)-5-oxo-1H-1,2,4-triazol-4(5H)-yl)-4-methyl-N-(pyridin-3-ylmethyl)thiazole-5-carboxamide], the melting point is 255 to 256 °C. For the same compound, half-maximal inhibition in series [1] (IC50) required 0.577 µM.

`CCN1CCN(c2nc(C)c(C(=O)NCc3cccnc3)s2)C1=O` [Example 9.39, 2-(3-ethyl-2-oxoimidazolidin-1-yl)-4-methyl-N-(pyridin-3-ylmethyl)thiazole-5-carboxamide] registered a melting point of 163 to 164 °C. For the same compound, in series [1], the IC50 worked out at 0.124 µM.

Regarding `Cc1nc(N2CCN(Cc3ccc(C(F)(F)F)cc3)C2=O)sc1-c1ccno1` [Example 38.1, 1-(5-(isoxazol-5-yl)-4-methylthiazol-2-yl)-3-(4-(trifluoromethyl)benzyl)imidazolidin-2-one], the melting point was 153 to 154 °C. For the same compound, the IC50 in series [1] stood at 1.24 µM.

`Cc1cc(N2CCN(Cc3ccc(F)cc3)C2=O)sc1C(=O)NC1Cc2ccccc2C1` [Example 55.8, N-(2,3-dihydro-1H-inden-2-yl)-5-(3-(4-fluorobenzyl)-2-oxoimidazolidin-1-yl)-3-methylthiophene-2-carboxamide] came in with an IC50 in series [1] of 0.027 µM.

In turn, `Cc1noc(-c2sc(N3CCN(Cc4ccc(C(F)(F)F)cc4)C3=O)nc2C)n1` [Example 44, 1-(4-methyl-5-(3-methyl-1,2,4-oxadiazol-5-yl)thiazol-2-yl)-3-(4-(trifluoromethyl)benzyl)imidazolidin-2-one] registered a melting point of 163 to 164 °C. For the same compound, in series [1], the IC50 was 0.152 µM.

Regarding `Cc1cc(N2CCN(Cc3ccc(F)cc3)C2=O)sc1-c1nc(Cc2ccccc2)c[nH]1` [Example 60, 1-(5-(4-benzyl-1H-imidazol-2-yl)-4-methylthiophen-2-yl)-3-(4-fluorobenzyl)imidazolidin-2-one], the IC50 in series [1] worked out at 0.428 µM.

The compound `Cc1nc(N2CCN(Cc3ccccc3)C2=N)sc1C(=O)NCc1ccccc1` [Example 27.3, N-benzyl-2-(3-benzyl-2-iminoimidazolidin-1-yl)-4-methylthiazole-5-carboxamide] registered a melting point of 125 to 126 °C. The same compound yielded an IC50 in series [1] of 0.025 µM.

In series [1], `Cc1nc(N2CCN(CC3CCCCO3)C2=O)sc1C(=O)NCc1ccccc1` (centres unmarked) [Example 23.6, N-benzyl-4-methyl-2-(2-oxo-3-((tetrahydro-2H-pyran-2-yl)methyl)imidazolidin-1-yl)thiazole-5-carboxamide] showed an IC50 of 0.495 µM.

As for `CCOC(=O)c1ccc(CN2CCN(c3nc(C)c(C(=O)NCc4ccccc4)s3)C2=O)cc1` [Example 23.2, ethyl 4-((3-(5-(benzylcarbamoyl)-4-methylthiazol-2-yl)-2-oxoimidazolidin-1-yl)methyl)benzoate], the melting point was 118 to 120 °C. Also, half-maximal inhibition in series [1] (IC50) was put at 0.061 µM.

Take `Cc1nc(N2CCN(Cc3ccc(C(F)(F)F)cc3)C2=O)sc1Br` [Example 45, 1-(5-bromo-4-methylthiazol-2-yl)-3-(4-(trifluoromethyl)benzyl)imidazolidin-2-one]: the melting point is 107 to 108 °C. For the same compound, 0.459 µM corresponded to half-maximal inhibition in series [1] (IC50).

As for `Cc1nc(N2CCN(Cc3ccccn3)C2=O)sc1C(=O)NCc1cccnc1` [Example 32.8, 4-methyl-2-(2-oxo-3-(pyridin-2-ylmethyl)imidazolidin-1-yl)-N-(pyridin-3-ylmethyl)thiazole-5-carboxamide], the melting point fell in the range of 58 to 61 °C. Moreover, the IC50 in series [1] is 0.267 µM.

The compound `Cc1nc(-n2ccn(Cc3ccc(C(F)(F)F)cc3)c2=O)sc1C(=O)NCc1cccnc1` [Example 17.3, 4-methyl-2-(2-oxo-3-(4-(trifluoromethyl)benzyl)-2,3-dihydro-1H-imidazol-1-yl)-N-(pyridin-3-ylmethyl)thiazole-5-carboxamide] came in with a melting point of 163 to 164 °C. Further, in series [1], the IC50 came to 0.012 µM.

For `Cc1ccc(CNC(=O)c2sc(N3CCN(Cc4ccccc4)C3=O)nc2C)o1` [Example 9.10, 2-(3-benzyl-2-oxoimidazolidin-1-yl)-4-methyl-N-((5-methylfuran-2-yl)methyl)thiazole-5-carboxamide], the melting point was 138 to 139 °C.

Turning to `Cc1nc(N2CCN(CCC3CC3)C2=O)sc1C(=O)NCc1cccnc1` [Example 9.26, 2-(3-(2-cyclopropylethyl)-2-oxoimidazolidin-1-yl)-4-methyl-N-(pyridin-3-ylmethyl)thiazole-5-carboxamide], the melting point lay in the range of 146 to 147 °C.

Consider `Cc1cnc(CNC(=O)c2sc(N3CCN(Cc4ccc(C(F)(F)F)cc4)C3=O)nc2C)cn1` [Example 9.33, 4-methyl-N-((5-methylpyrazin-2-yl)methyl)-2-(2-oxo-3-(4-(trifluoromethyl)benzyl)imidazolidin-1-yl)thiazole-5-carboxamide], for which the melting point was 172 to 173 °C.

As to `Cc1nc(-n2cnn(Cc3ccc(F)cc3)c2=O)sc1C(=O)NCc1cnn(C)c1` [Example 21.10, 2-(1-(4-fluorobenzyl)-5-oxo-1H-1,2,4-triazol-4(5H)-yl)-4-methyl-N-((1-methyl-1H-pyrazol-4-yl)methyl)thiazole-5-carboxamide], the melting point lay within 205 to 206 °C.

`Cc1nc(N2CCN(CC3CCC3)C2=O)sc1C(=O)NCc1cccnc1` [Example 9.37, 2-(3-(cyclobutylmethyl)-2-oxoimidazolidin-1-yl)-4-methyl-N-(pyridin-3-ylmethyl)thiazole-5-carboxamide] came in with a melting point of 136 to 137 °C.

The compound `Cc1nc(N2CCN(Cc3ccccc3)C2=O)sc1C(=O)NCc1ccc(F)c(F)c1` [Example 9.5, 2-(3-benzyl-2-oxoimidazolidin-1-yl)-N-(3,4-difluorobenzyl)-4-methylthiazole-5-carboxamide] registered a melting point of 152 to 153 °C.
